Data published in ChEMBL document CHEMBL1201862, “PubChem BioAssay data set” (2004).
Active and inactive are the calls of the source. Cut-off read from the data, not from the text of the source, for most assays here: actives have a measured EC50 and inactives only a lower limit.

Key:
[1] = target: Large T antigen (Simian virus 40, UniProt P03070); assay type: functional, Betapolyomavirus macacae;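 note: Confirmatory-stage PubChem screen for compounds that inhibit SV40 T antigen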
[2] = target: T1, Corticotropin-releasing factor receptor 2/Corticotropin-releasing factor-binding protein (Homo sapiens, UniProt P24387+Q13324); assay: Dose Response confirmation of uHTS hits for small molecule antagonists of the CRF-binding protein and CRF-R2 receptor complex.; assay type: functional; conditions: read-out: IC50_Mean
T1 sequence (Q13324 whole entry): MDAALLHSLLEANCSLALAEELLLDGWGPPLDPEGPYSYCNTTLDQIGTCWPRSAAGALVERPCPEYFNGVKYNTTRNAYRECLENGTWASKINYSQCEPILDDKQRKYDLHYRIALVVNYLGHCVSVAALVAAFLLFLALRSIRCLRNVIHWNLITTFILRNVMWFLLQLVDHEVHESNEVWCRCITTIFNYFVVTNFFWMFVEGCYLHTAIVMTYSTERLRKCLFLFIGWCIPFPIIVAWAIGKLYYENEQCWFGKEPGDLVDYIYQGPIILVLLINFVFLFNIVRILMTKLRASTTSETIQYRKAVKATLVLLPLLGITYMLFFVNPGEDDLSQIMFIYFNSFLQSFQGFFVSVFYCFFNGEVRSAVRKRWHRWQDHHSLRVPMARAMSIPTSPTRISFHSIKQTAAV
T1 sequence (P24387 whole entry): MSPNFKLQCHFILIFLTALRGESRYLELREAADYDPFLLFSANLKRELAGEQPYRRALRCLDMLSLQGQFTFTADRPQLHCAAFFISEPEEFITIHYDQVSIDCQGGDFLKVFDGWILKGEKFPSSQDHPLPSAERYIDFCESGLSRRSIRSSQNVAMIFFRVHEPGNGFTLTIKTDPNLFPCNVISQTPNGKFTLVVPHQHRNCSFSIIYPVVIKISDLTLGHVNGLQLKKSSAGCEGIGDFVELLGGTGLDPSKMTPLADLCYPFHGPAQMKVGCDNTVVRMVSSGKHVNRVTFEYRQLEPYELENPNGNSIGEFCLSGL

[3] = target: T1, Corticotropin-releasing factor receptor 2/Corticotropin-releasing factor-binding protein; assay: activators of CRF receptor 2 with binding protein – uHTS hits, confirmation (AID 602473); assay type: functional; conditions: read-out: EC50_Mean
[4] = target: T2, Heat shock factor protein 1 (Mus musculus, UniProt P38532); assay: enhancement of HSF1-driven luciferase signal – cell-based, NIH3T3, luminescence, dose retest, confirmation (AID 435004); assay type: functional;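 note: stress induced by proteasome inhibitor MG132 added 30 min after compound; luciferase reporter driven by HSF1 response element in NIH3T3 cells; actives raise luminescence as potentiators of the MG132 stress response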
T2 sequence (P38532 whole entry): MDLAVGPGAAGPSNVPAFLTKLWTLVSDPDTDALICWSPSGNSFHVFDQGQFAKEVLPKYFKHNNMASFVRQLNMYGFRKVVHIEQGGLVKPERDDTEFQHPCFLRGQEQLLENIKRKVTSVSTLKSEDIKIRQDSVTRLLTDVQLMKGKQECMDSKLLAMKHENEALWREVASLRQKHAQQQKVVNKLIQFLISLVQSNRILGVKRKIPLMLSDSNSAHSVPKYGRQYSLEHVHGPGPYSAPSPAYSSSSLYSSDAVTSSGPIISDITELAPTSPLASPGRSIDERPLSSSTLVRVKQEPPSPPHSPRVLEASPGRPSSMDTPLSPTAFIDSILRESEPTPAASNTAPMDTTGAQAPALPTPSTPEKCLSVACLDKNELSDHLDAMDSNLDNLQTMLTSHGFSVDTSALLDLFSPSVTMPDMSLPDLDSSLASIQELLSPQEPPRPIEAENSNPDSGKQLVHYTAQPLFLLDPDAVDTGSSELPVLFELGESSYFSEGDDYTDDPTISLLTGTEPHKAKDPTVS

[5] = luciferase reporter signal suppression in cells – H4 neuroglioma cells, luminescence, dose response (AID 1990); assay type: functional, cell-based
[6] = Luminescence Cell-Based Dose Response HTS to Identify Inhibitors of 5'UTR Stem-Loop Driven Prion Protein mRNA Translation in H4 Neuroglioblastoma Cells. [Related pubchem assays: 1827 (Project Summary), 1813 (Primary HTS)]; assay type: functional
[7] = alpha-synuclein stem-loop luciferase translation blockers – H4 neuroglioma cells, luminescence, confirmation (AID 1988); assay type: functional, cell-based
[8] = Trypanosoma cruzi growth suppression in host cells – NIH3T3 host cells, beta-gal luminescence, confirmation (AID 2044); assay type: functional, cell-based;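 note: intracellular parasites grown in NIH/3T3 mouse fibroblasts as host cells; luminescent beta-galactosidase reporter signal from transgenic T. cruzi replicating inside host cells; inhibitors lower the luminescence signal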
[9] = NIH3T3 cell viability loss – ATP luminescence, mouse fibroblasts, counter-screen, dose response (AID 2010); assay type: functional, cell-based;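 note: cells exposed to compound for about 90 hours before reading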

Chain of Large T antigen (P03070 whole entry): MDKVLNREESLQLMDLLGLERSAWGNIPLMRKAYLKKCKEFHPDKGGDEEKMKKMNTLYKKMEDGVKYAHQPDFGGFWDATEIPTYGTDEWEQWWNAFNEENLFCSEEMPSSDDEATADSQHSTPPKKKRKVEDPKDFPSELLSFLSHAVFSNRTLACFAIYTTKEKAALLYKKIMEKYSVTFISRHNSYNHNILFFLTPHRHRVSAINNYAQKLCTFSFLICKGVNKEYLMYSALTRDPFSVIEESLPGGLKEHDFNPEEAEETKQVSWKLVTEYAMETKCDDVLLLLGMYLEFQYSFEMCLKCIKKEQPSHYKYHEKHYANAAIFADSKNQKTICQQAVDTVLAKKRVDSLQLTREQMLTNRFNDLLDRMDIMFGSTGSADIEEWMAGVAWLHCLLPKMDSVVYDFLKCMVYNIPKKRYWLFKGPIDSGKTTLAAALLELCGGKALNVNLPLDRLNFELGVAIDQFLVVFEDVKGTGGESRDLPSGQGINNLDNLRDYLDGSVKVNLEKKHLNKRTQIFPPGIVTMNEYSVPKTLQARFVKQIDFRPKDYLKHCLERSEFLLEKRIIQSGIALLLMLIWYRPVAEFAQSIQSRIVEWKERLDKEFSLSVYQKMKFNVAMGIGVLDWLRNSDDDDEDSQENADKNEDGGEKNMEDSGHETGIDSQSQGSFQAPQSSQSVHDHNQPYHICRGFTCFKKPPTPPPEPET

Row | Compound | IC50 [2] | EC50 [3] | EC50 [4] | also measured
1 | O=C(Nc1ccc(O)cc1)/C(=C/c1ccco1)NC(=O)c1ccccc1 | – | – | – | IC50 [1]: 11 µM (active)
2 | Cc1ccn2cc(CSc3ccccc3N)nc2c1 | > 47.1 µM (inactive) | > 53 µM (inactive) | – | –
3 | N#CCCn1cc(C=C(C#N)C#N)c(-c2ccc(-c3ccccc3)cc2)n1 | – | – | 7.51 µM (active) | –
4 | COc1ccc(/C=N/NC(=O)c2ccccc2NC(=O)c2ccco2)c(OC)c1 | > 47.1 µM (inactive) | > 53 µM (inactive) | – | –
5 | CCCCc1ccc(NS(=O)(=O)c2c(C)n(C)c(=O)n(C)c2=O)cc1 | – | – | > 260 µM (inactive) | –
6 | CN(C)c1ccc(NC(=O)CN2CCN(c3ccc(F)cc3)CC2)cc1 | – | – | – | IC50 [1]: 5.83 µM (active)
7 | CCN(CC)S(=O)(=O)c1cc(OC)c(C)cc1C | > 47.1 µM (inactive) | > 53 µM (inactive) | – | –
8 | Cc1cc(C)nc(SCc2cc(=O)c(OC(=O)c3ccc(S(=O)(=O)N4CCCC4)cc3)co2)n1 | – | – | – | IC50 [1]: 37.3 µM (active)
9 | CCC(C)NC(=O)c1nc(O)c2nnn(Cc3ccccc3Cl)c2n1 (centres undefined) | – | – | > 260 µM (inactive) | –
10 | Sc1nc(-c2ccc(Br)cc2)cn1CCc1ccccc1 | – | – | > 260 µM (inactive) | –
11 | CCOC(=O)c1c(C)c(C(=O)Nc2ccc(N(C)C)cc2)c(C)n1CC | – | – | – | IC50 [1]: 15.1 µM (active)
12 | COc1cc(CC(=O)N(c2ccccc2)c2nc(C)cs2)cc(OC)c1OC | – | – | > 260 µM (inactive) | –
13 | O=c1oc2ccccc2c(NC2CCCCC2)c1NS(=O)(=O)c1ccc(Cl)cc1 | – | – | 120 µM (active) | –
14 | O=C(Nc1ccccc1Oc1cccnc1)C1CCCN(Cc2ccccc2O)C1 (centres undefined) | > 47.1 µM (inactive) | > 53 µM (inactive) | – | –
15 | C=C(C)CN1CC[C@]23c4c5ccc(O)c4O[C@H]2c2[nH]c4ccccc4c2C[C@@]3(O)C1C5 | – | – | – | EC50 [5]: 13.7 µM (active); EC50 [6]: 109 µM (active); EC50 [7]: 13.3 µM (active)
16 | Cc1cc(C)c(OCCN(C)Cc2ccccc2)c(Br)c1 | > 47.1 µM (inactive) | > 53 µM (inactive) | – | EC50 [8]: 1.68 µM (active); EC50 [9]: > 60 µM (not active)
17 | Cc1ccc(S(=O)(=O)N2CCOCC2)cc1C(=O)NC1CCN(Cc2ccccc2)CC1 | > 47.1 µM (inactive) | > 53 µM (inactive) | – | –
18 | CCCCCCC1CCC(C(=O)NC(CCSC)C(=O)NC(C(=O)OC)C(C)C)CC1 (centres undefined) | – | – | > 260 µM (inactive) | –
19 | O=C(CNC(=O)C1CCCCC1)Nc1ccc(F)c(Cl)c1 | > 47.1 µM (inactive) | > 53 µM (inactive) | – | –
20 | Cc1cccc(NCCC#N)c1 | – | – | – | EC50 [5]: > 120 µM (not active); EC50 [6]: > 120 µM (not active); EC50 [7]: > 120 µM (not active)
21 | COc1ccc(/C=N/OCC(=O)N=Nc2c(O)[nH]c3ccc(Br)cc23)cc1 | 5.15 µM (active) | > 53 µM (inactive) | – | –
22 | Cc1ccc(O)c(NC(=O)Cc2ccc3ccccc3c2)c1 | – | – | 7.7 µM (active) | –
23 | COc1cccc(-n2c(=O)c3ccccc3n3c(S)nnc23)c1 | – | – | – | IC50 [1]: 19.1 µM (active)
24 | Cc1ccc(NC(=O)c2ccc(S(=O)(=O)N3CCC(C)CC3)cc2)cc1 | – | – | – | EC50 [5]: > 120 µM (not active); EC50 [6]: 38.7 µM (active); EC50 [7]: 12 µM (active)
25 | CCOC(=O)c1c(C)n[nH]c1NCc1ccccc1 | – | – | – | EC50 [5]: 26 µM (active); EC50 [6]: > 120 µM (not active); EC50 [7]: > 120 µM (not active)
26 | O=c1/c(=C/c2ccccc2)sc2nnc(-c3cccs3)n12 | – | – | 23.3 µM (active) | –
